In patent US8569336B2, “Compounds for the treatment of inflammatory disorders” (priority 2008, dated 2013):
Where two headings read alike, the source gives them in different places.

Columns and labels:
[1] = tested on: TNF-α production from human whole blood; experiment: Inhibition of TNF-α production from human whole blood (hWBA), LPS stimulated, ELISA; type: cell-based; conditions: Homo sapiens
[2] = target: T1, purified catalytic domain of recombinant human TACE (rhTACEc) (Homo sapiens, UniProt P78536, N452Q/S266A); experiment: TACE kinetic assay: cleavage of internally quenched peptide substrate TNF-FRET 2 (Ki); type: biochemical; conditions: TNF-FRET 2 substrate
T1 construct: 6xHis (C); made in house; host or cells: baculovirus/Hi5 insect cells

[3] = LPS-stimulated human whole blood, TNF-α by ELISA, read-out: hWBA (IC50)
[4] = human whole blood diluted 1:1, LPS stimulated, TNF-α by ELISA, read-out: hWBA (IC50)
[5] = 3.5 h, human whole blood diluted 1:1, LPS stimulated, 3.5 h, TNF-α by ELISA, read-out: hWBA (IC50)

T1 sequence (P78536 215-477 S266A/N452Q): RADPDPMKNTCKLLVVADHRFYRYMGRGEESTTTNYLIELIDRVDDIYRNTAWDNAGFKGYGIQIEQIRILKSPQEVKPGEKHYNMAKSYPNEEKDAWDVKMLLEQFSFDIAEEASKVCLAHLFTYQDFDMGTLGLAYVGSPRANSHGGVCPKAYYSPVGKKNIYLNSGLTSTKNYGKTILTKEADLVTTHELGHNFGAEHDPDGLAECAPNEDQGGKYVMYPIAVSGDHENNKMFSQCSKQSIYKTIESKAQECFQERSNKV

COc1ccc2c(c1F)C(=O)N(C[C@@]1(c3cc4nc(Nc5cccnc5)ccc4o3)NC(=O)NC1=O)C2 [Compound 1728]
IC50 [1, 3]: 0.28 µM
Ki ([2]; read-out: Ki): 0.00047 µM

COC(=O)NCCNc1nc2cc([C@]3(CN4Cc5ccc(OC)c(F)c5C4=O)NC(=O)NC3=O)oc2cc1F [Compound 1319]
IC50 [1, 3]: 0.252 µM

CCN1CCN(C(=NO)c2ccc3oc([C@]4(CN5Cc6ccc(OC)cc6C5=O)NC(=O)NC4=O)cc3c2)CC1 [Compound 2453]
IC50 [1, 4]: 0.393 µM
Ki ([2]; read-out: Ki): 0.00051 µM

COc1ccc2c(c1)C(=O)N(C[C@@]1(c3cc4cc(C5CCNCC5)ncc4o3)NC(=O)NC1=O)C2 [Compound 301]
IC50 [1, 3]: 0.162 µM
Ki ([2]; read-out: Ki): 0.00104 µM

COc1ccc2c(c1)C(=O)N(C[C@@]1(c3cc4nc(-c5ccnc(N6CCNCC6)c5)ccc4o3)NC(=O)NC1=O)C2 [Compound 1720]
IC50 [1, 3]: 0.224 µM
Ki ([2]; Ki): 0.00031 µM

CCN1CCN(c2cc3cc([C@]4(CN5Cc6ccc(OC)cc6C5=O)NC(=O)NC4=O)oc3cn2)CC1 [Compound 308]
IC50 [1, 3]: 0.343 µM

COc1ccc2c(c1)C(=O)N(C[C@@]1(c3cc4cc(CNc5ccccn5)ccc4o3)NC(=O)NC1=O)C2 [Compound 2181]
IC50 [1, 5]: 1.65 µM
Ki ([2]; read-out: Ki): 0.000343 µM

CCN1CC=C(c2nc3cc([C@]4(CN5Cc6ccc(OC)c(F)c6C5=O)NC(=O)NC4=O)oc3cc2F)CC1 [Compound 1321]
IC50 [1, 3]: 0.184 µM
Ki ([2]; read-out: Ki): 0.00064 µM

COc1ccc2c(c1)C(=O)N(C[C@@]1(c3cc4nc(C(=O)NC5CC5)ccc4o3)NC(=O)NC1=O)C2 [Compound 2464]
IC50 [1, 4]: 0.367 µM
Ki ([2]; read-out: Ki): 0.000115 µM

COc1cc2c(cc1F)CN(C[C@@]1(c3cc4cnccc4o3)NC(=O)NC1=O)C2=O [Compound 2311]
IC50 [1, 4]: 0.942 µM
Ki ([2]; read-out: Ki): 0.00172 µM

COc1ccc2c(c1)C(=O)N(C[C@@]1(c3cc4c(o3)CCN(C(=O)N(C)C)C4)NC(=O)NC1=O)C2 [Compound 319]
IC50 [1, 3]: 0.501 µM
Ki ([2]; read-out: Ki): 0.00183 µM

COc1cc2c(cc1OC)C(=O)N(C[C@@]1(c3cc4cnccc4o3)NC(=O)NC1=O)C2 [Compound 200]
IC50 [1, 3]: ≥ 10 µM
Ki ([2]; read-out: Ki): 0.00723 µM

COc1ccc2c(c1)C(=O)N(C[C@@]1(c3cc4c(o3)CCN(C(=O)Nc3cccnc3)C4)NC(=O)NC1=O)C2 [Compound 2443]
IC50 [1, 4]: ≥ 1000 µM

CCOC(=O)[C@H]1CCC(=O)N1c1ccc2oc([C@]3(CN4Cc5ccc(OC)cc5C4=O)NC(=O)NC3=O)cc2n1 [Compound 1502]
IC50 [1, 3]: 1.38 µM

COc1ccc2c(c1)C(=O)N(C[C@@]1(c3cc4nc(NC(=O)c5cccnc5)ccc4o3)NC(=O)NC1=O)C2 [Compound 1947]
IC50 [1, 3]: 0.537 µM

COc1ccc2c(c1)C(=O)N(C[C@@]1(c3cc4nc(NS(C)(=O)=O)ccc4o3)NC(=O)NC1=O)C2 [Compound 2315]
IC50 [1, 4]: 0.189 µM

CCNC(=O)Nc1ccc2oc([C@]3(CN4Cc5ccc(OC)cc5C4=O)NC(=O)NC3=O)cc2n1 [Compound 2316]
IC50 [1, 4]: 0.672 µM

CCOC(=O)N1CCc2cc([C@]3(CN4Cc5ccc(OC)cc5C4=O)NC(=O)NC3=O)oc2C1 [Compound 2439]
IC50 [1, 4]: 0.704 µM

CCN1CCN(C(=NO)c2cnc3cc([C@]4(CN5Cc6ccc(OC)cc6C5=O)NC(=O)NC4=O)oc3c2)CC1 [Compound 1934]
IC50 [1, 3]: 0.342 µM

COc1ccc2c(c1)C(=O)N(C[C@@]1(c3cc4ncc(C(=O)NCCN(C)C)cc4o3)NC(=O)NC1=O)C2 [Compound 1932]
IC50 [1, 3]: 0.8 µM

COc1ccc2c(c1)C(=O)N(C[C@@]1(c3cc4nc(-c5ccc(S(N)(=O)=O)cc5)ccc4o3)NC(=O)NC1=O)C2 [Compound 2490]
IC50 [1, 4]: 2.69 µM

COc1ccc2c(c1)C(=O)N(C[C@@]1(c3cc4cnc(C#N)cc4o3)NC(=O)NC1=O)C2 [Compound 2444]
IC50 [1, 4]: 0.759 µM

COc1ccc2c(c1F)C(=O)N(C[C@@]1(c3cc4cc(-c5c(C)nn(C)c5C)c(F)cc4o3)NC(=O)NC1=O)C2 [Compound 1182]
Ki ([2]; read-out: Ki): 0.00041 µM

CCNC(=O)NCc1ccc2oc([C@]3(CN4Cc5ccc(OC)cc5C4=O)NC(=O)NC3=O)cc2c1 [Compound 325]
IC50 [1, 3]: 1.99 µM

COC(=O)c1ccc2oc([C@]3(CN4Cc5ccc(OC)cc5C4=O)NC(=O)NC3=O)cc2n1 [Compound 1923]
IC50 [1, 3]: 0.339 µM

CCNC(=O)N1CCc2oc([C@]3(CN4Cc5ccc(OC)cc5C4=O)NC(=O)NC3=O)cc2C1 [Compound 2442]
IC50 [1, 4]: 0.309 µM

COc1ccc2c(c1)C(=O)N(C[C@@]1(c3ccc(-c4ccc(F)c(C#N)c4)cc3)NC(=O)NC1=O)C2 [Compound 1506]
Ki ([2]; read-out: Ki): 0.0064 µM

COc1ccc2c(c1)C(=O)N(C[C@@]1(c3cc4cc(N5CCNC5=O)ncc4o3)NC(=O)NC1=O)C2 [Compound 307]
IC50 [1, 3]: 0.529 µM

CCN1CCN(c2ccc(O)c(-c3ccc([C@]4(CN5Cc6ccc(OC)cc6C5=O)NC(=O)NC4=O)cc3)n2)CC1 [Compound 902]
IC50 [1, 3]: 1.51 µM

COc1ccc2c(c1)C(=O)N(C[C@@]1(c3cc4cc(CNC(=O)N(C)C)ccc4o3)NC(=O)NC1=O)C2 [Compound 326]
IC50 [1, 3]: 1.23 µM

COCCN1CCN(c2ccc3oc([C@]4(CN5Cc6ccc(OC)cc6C5=O)NC(=O)NC4=O)cc3n2)CC1 [Compound 2160]
IC50 [1, 5]: 0.333 µM

CNC(=O)c1cnc2cc([C@]3(CN4Cc5ccc(OC)cc5C4=O)NC(=O)NC3=O)oc2c1 [Compound 2461]
Ki ([2]; Ki): 0.000871 µM

COc1ccc2c(c1)C(=O)N(C[C@@]1(c3cc4c(o3)CCN(S(C)(=O)=O)C4)NC(=O)NC1=O)C2 [Compound 2438]
IC50 [1, 4]: 0.497 µM

COc1ccc2c(c1)C(=O)N(C[C@@]1(c3cc4ncc(C(=O)NCCN(C)C)cc4o3)NC(=O)NC1=O)C2 [Compound 2465]
IC50 [1, 4]: 0.8 µM

COc1ccc2c(c1)C(=O)N(C[C@@]1(c3cc4nc(NC(=O)c5cccnc5)ccc4o3)NC(=O)NC1=O)C2 [Compound 2313]
IC50 [1, 4]: 0.537 µM

COc1ccc2c(c1)C(=O)N(C[C@@]1(c3cc4nc(-c5ccc(S(N)(=O)=O)cc5)ccc4o3)NC(=O)NC1=O)C2 [Compound 1528]
IC50 [1, 3]: 2.69 µM

COc1ccc2c(c1)C(=O)N(C[C@@]1(c3cc4ncc(C(=NO)N5CCN(c6cnccn6)CC5)cc4o3)NC(=O)NC1=O)C2 [Compound 1935]
IC50 [1, 3]: 0.546 µM

O=C1NC(=O)C(CN2Cc3ccccc3C2=O)(c2ccccc2)N1 (stereo not shown) [Compound 1297]
Ki ([2]; read-out: Ki): 0.0164 µM

CNC(=O)c1cnc2cc([C@]3(CN4Cc5ccc(OC)cc5C4=O)NC(=O)NC3=O)oc2c1 [Compound 1930]
Ki ([2]; Ki): 0.00087 µM

CCOC(=O)NCc1ccc2oc([C@]3(CN4Cc5ccc(OC)cc5C4=O)NC(=O)NC3=O)cc2c1 [Compound 324]
IC50 [1, 3]: 1.69 µM

COc1ccc2c(c1F)C(=O)N(C[C@@]1(c3cc4cc5c(cc4o3)C(=O)NCCC5)NC(=O)NC1=O)C2 [Compound 2492]
IC50 [1, 4]: 0.322 µM

COc1ccc2c(c1)C(=O)N(C[C@@]1(c3cc4c(o3)CCN(C(=O)N(C)C)C4)NC(=O)NC1=O)C2 [Compound 2441]
IC50 [1, 4]: 0.501 µM

COC(=O)CCNc1nc2cc([C@]3(CN4Cc5ccc(OC)c(F)c5C4=O)NC(=O)NC3=O)oc2cc1F [Compound 1921]
IC50 [1, 3]: 0.239 µM

COc1ccc2c(c1)C(=O)N(C[C@@]1(c3cc4c(o3)CCN(C(N)=O)C4)NC(=O)NC1=O)C2 [Compound 2440]
IC50 [1, 4]: 0.646 µM

COc1ccc2c(c1F)C(=O)N(C[C@@]1(c3cc4nc(C)c(-c5ccc(N)nc5)cc4o3)NC(=O)NC1=O)C2 [Compound 1919]
IC50 ([1]; read-out: hWBA (IC50), LPS-stimulated human whole blood, TNF-α by ELISA): 0.308 µM

COCCNC(=O)c1cnc2cc([C@]3(CN4Cc5ccc(OC)cc5C4=O)NC(=O)NC3=O)oc2c1 [Compound 1933]
IC50 [1, 3]: 0.657 µM

CCN1CCN(c2ccc3oc([C@@]4(CN5Cc6ccc(OCC7CC7)c(F)c6C5=O)NC(=O)NC4=O)cc3n2)CC1 [Compound 901]
Ki ([2]; read-out: Ki): 0.501 µM

COc1ccc2c(c1F)C(=O)N(C[C@]1(c3ccco3)NC(=O)NC1=O)C2 [Compound 312]
Ki ([2]; read-out: Ki): 0.501 µM
